Source: patent CN116139126A, “表没食子儿茶素-3-没食子酸酯在制备嗜水气单胞菌的群体感应抑制剂中的应用” (Yueyang Yumeikang Bio Tech Co ltd, priority 2023, dated 2023)

System: hemolysin of Aeromonas hydrophila (嗜水气单胞菌 溶血素)
Experiment: Quantitative beta-hemolysin assay (5% rabbit red blood cells)
Assay type: cell-based, Aeromonas hydrophila AH08

O=C(O[C@@H]1Cc2c(O)cc(O)cc2O[C@@H]1c1cc(O)c(O)c(O)c1)c1cc(O)c(O)c(O)c1 [EGCG, 表没食子儿茶素-3-没食子酸酯]
inhibition at 256 µg/mL (Aeromonas hydrophila, Erythrocyte, 256 μg/ml, compared with blank control, read-out: inhibition rate of hemolysin): 28.2% | inhibition of hemolytic activity (in words) (high concentration EGCG): 显著抑制
